# Measurements: patent US8106092B2, “Treatment of solid cancers” (priority 2004, dated 2012)
# What was measured:
# Format in all cases: in vivo, C57BL/6 mice
# B16 lung metastases = experiment: B16 lung metastasis model
# Method: FIG. 5 is a graphical representation showing the treatment of s.c. B16 tumors with PEP005 reduced growth B16 lung metastases. C57BL/6 mice (n=7) were injected with 10^6 B16 cells s.c. and 5×10^4 B16 cell i.v. on d−2. On dO the s.c. tumors had reached an average 21.8 mm^2+SE 2.4 and were cured with 25 μg of i.t. PEP005 formulated with PEG400. On d18 the mice were euthanazed and lung weights determined (PEP005). Control mice received only i.v. B16 and naïve mice received no tumors (n=6 per group).
# The activity of PEP005-mediated cure of primary tumors was assessed in a more robust model using B16 tumors rather than B16-OVA tumors and where primary tumors and lung metastases were both established prior to PEP005 treatment. When the primary tumors had reached 21.8+SE 2.4 they were cured with i.t. PEP005 injection. […] After subtracting the weight of tumor free lungs (FIG. 5A, naïve, dotted line), this represented a reduction in lung tumor burden of over 50%.
# B16-OVA lung metastases = experiment: B16-OVA melanoma lung metastasis model
# Method: FIGS. 4A to D are graphical representations showing protection against secondary tumors following cure of primary tumors with PEP005. (A) C57BL/6 mice received 5×10^5 Lewis lung-OVA s.c. on the back on day less 7 (d−7). When these primary tumors had reached an average 13.6 mm^2±1.8 SE (range 10-25 mm^2) on d0 they were treated once with 16 μg of PEP005 delivered i.t. In eight mice these primary tumors were cured, and these mice received 5×10^5 Lewis lung-OVA s.c. on d4 on the opposite flank from the primary tumors. The emergence of these secondary tumors was monitored over time (PEP005 cured). In a parallel group of animals (n=5) PEP005 treatment regressed the primary tumors, but after 11-13 days the primary tumors re-emerged. These animals also received secondary tumors as above and their emergence was again monitored over time (PEP005 regressed). Two control groups were included. One group (n=6) received no primary tumors, but was treated s.c. with PEP005 and received secondary tumors on the opposite flank (white triangles, PEP005 s.c.). The second control group (n=8) also received no primary tumors, was not treated with PEP005, and received secondary tumors as above (Controls). […] Secondary B16-OVA (10^5) were injected i.v. on d6 and animals were sacrificed on d27 and lung metastases counted. […]
# [1] = tested on: SIINFEKL [SEQ ID NO:2]-specific CD8^+ T-cells; experiment: SIINFEKL-specific CD8+ T-cells by IFNγ ELISPOT after i.t. PEP005 treatment of Lewis lung-OVA
# Method: FIGS. 4A to D are graphical representations showing protection against secondary tumors following cure of primary tumors with PEP005. (A) C57BL/6 mice received 5×10^5 Lewis lung-OVA s.c. on the back on day less 7 (d−7). When these primary tumors had reached an average 13.6 mm^2±1.8 SE (range 10-25 mm^2) on d0 they were treated once with 16 μg of PEP005 delivered i.t. In eight mice these primary tumors were cured, and these mice received 5×10^5 Lewis lung-OVA s.c. on d4 on the opposite flank from the primary tumors. The emergence of these secondary tumors was monitored over time (PEP005 cured). In a parallel group of animals (n=5) PEP005 treatment regressed the primary tumors, but after 11-13 days the primary tumors re-emerged. These animals also received secondary tumors as above and their emergence was again monitored over time (PEP005 regressed). Two control groups were included. One group (n=6) received no primary tumors, but was treated s.c. with PEP005 and received secondary tumors on the opposite flank (white triangles, PEP005 s.c.). […] Secondary B16-OVA (10^5) were injected i.v. on d6 and animals were sacrificed on d27 and lung metastases counted.
# Mouse splenocytes were analyzed by ex vivo IFNγ ELISPOT essentially as described previously (Le et al, Vaccine 19:4669-4675, 2001), but using MultiScreen-IP plates (Millipore) and 25 IU/ml of recombinant human IL-2 (Cetus).
smiles,measurement,setting,value
"C/C=C(/C)C(=O)O[C@H]1C(C)=C[C@]23C(=O)[C@@H](C=C(CO)[C@@H](O)[C@]12O)[C@H]1[C@@H](C[C@H]3C)C1(C)C [PEP005, ingenol-3-angelate]",reduction in lung tumor burden,"B16 lung metastases; after subtracting the weight of tumor free lungs, d18",over 50%
same,lung weights on d18 compared to controls,"B16 lung metastases; s.c. B16 primaries cured with i.t. PEP005, lung metastases established before treatment, p=0.023",lighter
same,growth of lung metastases,B16-OVA lung metastases; partial regression of the primary tumors by PEP005,failed to inhibit significantly
same,number of lung metastases,"B16-OVA lung metastases; s.c. primary B16-OVA cured by PEP005, B16-OVA i.v. six days after treatment, Wilcoxon p=0.046",reduce significantly
same,number of SIINFEKL-specific CD8+ T-cells vs untreated control animals,[1]; PEP005 injected s.c. rather than into a tumor,failed to increase
same,SIINFEKL-specific CD8+ T-cells vs control animals,"[1]; primary tumors cured by PEP005, p=0.008 unpaired t-Test",significantly more
